Experimental data from patent publication US5229109A, “Low toxicity interleukin-2 analogues for use in immunotherapy” (priority 1992, dated 1993).

How the values were obtained:
[1] = test system: peripheral blood mononuclear cells (IL-1β secretion); test: IL-1β secretion by PBMC, ELISA of LAK culture supernatants; assay type: cell-based, human; conditions: for IL-1β secretion decreased: maximal decrease vs native IL-2, supernatants at 24 hour intervals up to 7 days
Description: (§1) The abilities of the same concentrations of IL-2 and the analogues to stimulate peripheral blood mononuclear cells to secrete IL-1β and TNF-α in vitro were first compared. At 24 hour intervals up to 7 days, the LAK culture supernatants from the above-described experiment were collected and tested for IL-1β and TNF-α content using ELISA methodology. Commercially available ELISA kits were purchased from R & D Systems (TNF-α and TNF-β ), Immunotech (IL-1α and IL-1β), and Endogen (IFN-γ). The ELISAs were performed according to the protocols supplied by the manufacturer.
(§2) Fresh peripheral blood mononuclear cells (PBMC) obtained from leukopharesis of normal human donors were isolated over a Ficoll-Hypaque gradient. […] Non-adherent cells were tested for cytotoxicity against Daudi targets by a 4 hour ^51 Cr release assay, with specific lysis being presented as the mean of triplicate values. Cell-free supernatants from 3 day PBMC cultures were analyzed by ELISA for cytokine content.

IL-2 receptor p75 = molecular target: T1, IL-2 receptor p75 (Homo sapiens, UniProt P14784); test: IL-2 specific binding assay, intermediate affinity receptor
T1 construct: Each assay contained approximately 6×10^5 cells; endogenous in cells
T1 sequence (P14784 27-551): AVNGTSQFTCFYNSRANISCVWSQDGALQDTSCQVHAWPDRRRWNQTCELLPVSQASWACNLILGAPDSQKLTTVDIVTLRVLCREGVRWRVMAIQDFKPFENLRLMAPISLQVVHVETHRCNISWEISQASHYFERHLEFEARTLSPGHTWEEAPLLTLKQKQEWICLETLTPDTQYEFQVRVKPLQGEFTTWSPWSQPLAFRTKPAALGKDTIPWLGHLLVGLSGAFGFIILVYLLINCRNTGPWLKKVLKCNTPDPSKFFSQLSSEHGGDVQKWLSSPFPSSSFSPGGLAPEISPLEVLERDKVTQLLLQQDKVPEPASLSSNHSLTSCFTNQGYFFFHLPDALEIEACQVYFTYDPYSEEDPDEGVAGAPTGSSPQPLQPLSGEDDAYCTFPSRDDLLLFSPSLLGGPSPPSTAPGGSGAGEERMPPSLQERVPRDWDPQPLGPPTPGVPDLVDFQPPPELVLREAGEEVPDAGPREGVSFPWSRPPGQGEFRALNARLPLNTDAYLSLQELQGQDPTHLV
T1 sequence (P31785 23-369 partner): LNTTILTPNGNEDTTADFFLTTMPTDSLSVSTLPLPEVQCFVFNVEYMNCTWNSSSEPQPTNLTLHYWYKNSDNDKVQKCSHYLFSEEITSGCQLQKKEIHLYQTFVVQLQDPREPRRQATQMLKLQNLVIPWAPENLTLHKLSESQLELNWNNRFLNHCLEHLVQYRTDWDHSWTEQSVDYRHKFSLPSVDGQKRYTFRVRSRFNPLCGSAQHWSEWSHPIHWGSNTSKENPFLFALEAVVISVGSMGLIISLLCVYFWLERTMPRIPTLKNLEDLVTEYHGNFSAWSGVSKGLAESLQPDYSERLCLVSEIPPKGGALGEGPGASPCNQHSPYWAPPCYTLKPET
Description: The cells were then incubated for 1 hour at 37° C. and the washing procedure was repeated three times. […] Nonspecific binding was determined by inclusion of 50 nM unlabeled human rIL-2 in the assay. Incubations were carried out in duplicate or triplicate for 20 minutes at 37° C.

[2] = test system: peripheral blood mononuclear cells (TNF-α secretion); test: TNF-α secretion by PBMC, ELISA of LAK culture supernatants; assay type: cell-based, human; conditions: for TNF-α decreased: maximal decrease vs native IL-2, supernatants at 24 hour intervals up to 7 days
Description: as §1, §2

[3] = test system: IL-2 receptor p55 on PBMC; test: FACS analysis of p55 expression on cultured PBMC; assay type: cell-based, human; conditions: cultures stimulated for 72 hours
Description: Cultured PBMC were washed with PBS, 1% bovine serum albumin (BSA), and 0.1% sodium azide. To approximately one million cells, FITC-labelled monoclonal antibody against IL-2 receptor p55 or a non-specific control mouse IgG (Becton-Dickinson) was added. Following incubation for 30 minutes, the cells were washed twice using a Sorvall cell washer 2L, then fixed in PBS and 1% paraformaldehyde. The cells were then analyzed on Becton-Dickinson FACScan and results were presented as per cent of gated cells positive for p55 after subtraction of non-specific background fluorescence.

[4] = molecular target: T2, intermediate receptor p75 (Homo sapiens, UniProt P14784); conditions: Sauve et al., 1991; cited from earlier work
T2 sequence (P14784 27-551): T1 sequence (P14784 27-551)
T2 sequence (P31785 23-369 partner): T1 sequence (P31785 23-369 partner)

Daudi targets = test: LAK generation, 4 hour 51Cr release cytotoxicity assay; assay type: cell-based, human; conditions: 100:1 effector:target ratio; 0.5 nM native IL-2 or 1 nM mutants
Description: The abilities of optimal concentrations of IL-2 and the analogues to stimulate peripheral blood mononuclear cells to generate lymphokine activated killing (LAK) in vitro were next compared.
as §2

[5] = molecular target: T3, low affinity receptor p55 (Homo sapiens, UniProt P01589); conditions: Sauve et al., 1991; cited from earlier work
T3 sequence (P01589 22-272): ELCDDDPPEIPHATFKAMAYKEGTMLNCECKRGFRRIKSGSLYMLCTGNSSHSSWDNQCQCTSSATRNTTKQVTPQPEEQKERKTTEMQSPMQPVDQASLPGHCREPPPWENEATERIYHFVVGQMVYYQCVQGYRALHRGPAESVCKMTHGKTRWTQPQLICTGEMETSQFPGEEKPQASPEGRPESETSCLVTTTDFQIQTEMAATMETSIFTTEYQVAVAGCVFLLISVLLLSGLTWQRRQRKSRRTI

[6] = all time points, p<0.05, 3-way ANOVA

| Substance | IL-1β compared to that produced in response to native IL-2 [1, 6] | IL-1β secretion decreased [1] | ability to bind IL-2 receptor p75 (IL-2 receptor p75) | TNF-α compared to that produced in response to native IL-2 [2, 6] | TNF-α decreased [2] | percentage of cells expressing p55 [3] | percentage of cells expressing p55 doubled [3] | affinity for the intermediate receptor p75 [4] | % maximal specific lysis (Daudi targets) | binding to the low affinity receptor p55 [5] |
| --- | --- | --- | --- | --- | --- | --- | --- | --- | --- | --- |
| F42K: recombinant human IL-2 analogue, Phenylalanine (F) at position 42→Lysine (K) | significantly decreased | up to 43% | maintain their ability to bind | significantly decreased | ≤ 77% | 30% | doubled | maintained their affinity | 54% | could no longer bind |
| R38A | – | ≤ 28% | maintain their ability to bind | – | ≤ 66% | – | – | maintained their affinity | 55% | could no longer bind |
